Measured values as given in US20050004163A1, “3-(diarylmethylene)-8-azabicyclo[3.2.1]octane derivatives” (priority 2000, published 2005).
Read-outs that look alike come from different tables or passages of the source.

Assays:
μ-opioid receptor = biological target: T1, μ-opioid receptor (Rattus norvegicus, UniProt P33535); assay: Rat brain μ-opioid receptor binding assay ([3H]DAMGO)
T1 construct: the forebrains are homogenized in Tris buffer in a Teflon®-glass homogenizer; from tissue; host or cells: forebrain of male Wistar rats (particulate membrane preparation)
How it was run: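 Rat forebrain membranes from male Wistar rats, prepared in 50 mM Tris HCl pH 7.4, used for [3H]DAMGO binding. Filter-bound radioactivity measured by scintillation counting.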

[1] = system: acetylcholine bromide-induced abdominal constriction response; assay: Mouse acetylcholine bromide-induced abdominal constriction assay; format: in vivo; settings: dose of 150 μmole/Kg p.o., 5.5 mg/kg acetylcholine bromide i.p. 30 min later, ten min observation
Protocol: Mouse Acetylcholine Bromide-Induced Abdominal Constriction Assay
The mouse acetylcholine-induced abdominal constriction assay (as described by Collier et al. in Brit. J. Pharmacol. Chem. Ther., 1968, 32:295-310 with minor modifications) was used to assess analgesic potency of the compounds of formula (I). The test drugs or appropriate vehicles were administered orally (p.o.) and 30 min later the animal received an intraperitoneal (i.p.) injection of 5.5 mg/kg acetylcholine bromide (Matheson, Coleman and Bell, East Rutherford, N.J.). The mice were then placed in groups of three into glass bell jars and observed for a ten min observation period for the occurrence of an abdominal constriction response (defined as a wave of constriction and elongation passing caudally along the abdominal wall, accompanied by a twisting of the trunk and followed by extension of the hind limbs). For compounds of the present invention, the percent inhibition of this response to a nociceptive stimulus (equated to % analgesia) was calculated as follows: [formula]

[2] = 10 nM solutions of the compounds, read-out: MOR binding Ki

T1 sequence (P33535 whole entry): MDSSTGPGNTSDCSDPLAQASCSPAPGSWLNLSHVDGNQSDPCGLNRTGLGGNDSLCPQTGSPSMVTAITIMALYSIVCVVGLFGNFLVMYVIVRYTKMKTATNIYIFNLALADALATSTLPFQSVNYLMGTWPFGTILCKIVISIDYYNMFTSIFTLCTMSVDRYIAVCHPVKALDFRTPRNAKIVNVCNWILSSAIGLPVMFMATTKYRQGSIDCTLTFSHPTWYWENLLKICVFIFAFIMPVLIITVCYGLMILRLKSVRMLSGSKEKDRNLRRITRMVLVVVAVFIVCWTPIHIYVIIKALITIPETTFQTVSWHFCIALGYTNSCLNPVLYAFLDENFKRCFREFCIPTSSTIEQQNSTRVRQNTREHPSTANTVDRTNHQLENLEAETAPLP

Structure (SMILES)	Ki (μ-opioid receptor; MOR binding Ki) [nM]	other results
CCNC(=O)c1ccc(C(=C2CC3CCC(C2)N3CC(=O)c2cc(C(=O)c3ccc(Cl)cc3)cn2C)c2ccccc2)cc1 [Cpd 88, 4-[(8{2-[4-(4-Chloro-benzoyl)-1-methyl-1H-pyrrol-2-yl]-2-oxo-ethyl}-8-azabicyclo[3.2.1]oct-3-ylidene)-phenyl-methyl]-N-ethyl-benzamide]	551	melting point: 195 to 196 °C
CNC(=O)c1ccc(C=C2CC3CCC(C2)N3)cc1 [Cpd 103, 4-(8-Aza-bicyclo[3.2.1]oct-3-ylidenemethyl)-N-methyl-benzamide]	10600	melting point: 164 to 166 °C
CCNC(=O)c1ccc(C=C2CC3CCC(C2)N3CCC(C(=O)N(C)C)(c2ccccc2)c2ccccc2)cc1 [Cpd 107, 4-[8-(3-Dimethylcarbamoyl-3,3-diphenyl-propyl)-8-aza-bicyclo[3.2.1]oct-3-ylidenemethyl]-N-ethyl-benzamide]	22.8	melting point: 137 to 139 °C
CCNC(=O)c1ccc(C(=C2CC3CCC(C2)N3CCc2ccccc2)c2cccc(-c3nnn[nH]3)c2)cc1 [Cpd 166]	50.3	–
CCNC(=O)c1ccc(C(=C2CC3CCC(C2)N3Cc2nccs2)c2cccc(-c3nnn[nH]3)c2)cc1 [Cpd 167]	5.35	–
CCNC(=O)c1ccc(C(=C2CC3CCC(C2)N3Cc2cccs2)c2cccc(-c3nnn[nH]3)c2)cc1 [Cpd 168]	395	–
CCNC(=O)c1ccc(C(=C2CC3CCC(C2)N3Cc2ccsc2)c2cccc(-c3nnn[nH]3)c2)cc1 [Cpd 169]	14.2	–
CCNC(=O)c1ccc(C(=C2CC3CCC(C2)N3C(=O)OCC)c2ccc(O)c(OC)c2)cc1 [Cpd 172, 3-[(4-Ethylcarbamoyl-phenyl)-(4-hydroxy-3-methoxy-phenyl)-methylene]-8-aza-bicyclo[3.2.1]octane-8-carboxylic acid ethyl ester]	–	Ki (μ-opioid receptor; [2]): 713 nM
CCNC(=O)c1ccc(C(=C2CC3CCC(C2)N3C(=O)OCC)c2cc(C)c(O)c(C)c2)cc1 [Cpd 173, 3-[(4-Ethylcarbamoyl-phenyl)-(4-hydroxy-3,5-dimethyl-phenyl)-methylene]-8-aza-bicyclo[3.2.1]octane-8-carboxylic acid ethyl ester]	–	Ki (μ-opioid receptor; [2]): 2070 nM
CCNC(=O)c1ccc(C(=C2CC3CCC(C2)N3Cc2nccs2)c2ccc(C(=O)O)cc2)cc1 [Cpd 174]	304	–
CCNC(=O)c1ccc(C(=C2CC3CCC(C2)N3Cc2ccsc2)c2cccc(C(=O)O)c2)cc1 [Cpd 175]	34.4	–
CCNC(=O)c1ccc(C(=C2CC3CCC(C2)N3Cc2ccsc2)c2ccc(C(=O)O)cc2)cc1 [Cpd 176]	10.7	–
CCNC(=O)c1ccc(C(=C2CC3CCC(C2)N3Cc2ccoc2)c2ccc(C(N)=O)cc2)cc1 [Cpd 177]	1.34	–
CCNC(=O)c1ccc(C(=C2CC3CCC(C2)N3Cc2ccoc2)c2cccc(CO)c2)cc1 [Cpd 178]	0.81	–
CCNC(=O)c1ccc(C(=C2CC3CCC(C2)N3Cc2ccco2)c2cccc(CO)c2)cc1 [Cpd 179]	8.43	–
CCNC(=O)c1ccc(C(=C2CC3CCC(C2)N3Cc2ccco2)c2ccc(C(N)=O)cc2)cc1 [Cpd 180]	10	–
CCNC(=O)c1ccc(C(=C2CC3CCC(C2)N3Cc2ccccn2)c2cccc(CO)c2)cc1 [Cpd 181]	6.04	–
CCNC(=O)c1ccc(C(=C2CC3CCC(C2)N3Cc2ccccn2)c2ccc(NS(C)(=O)=O)cc2)cc1 [Cpd 182]	2.71	–
CCNC(=O)c1ccc(C(=C2CC3CCC(C2)N3Cc2ccccn2)c2ccc(C(N)=O)cc2)cc1 [Cpd 183]	–	Ki (μ-opioid receptor; [2]): 5050 nM
CCNC(=O)c1ccc(C(=C2CC3CCC(C2)N3CCc2ccccc2)c2ccc(NS(C)(=O)=O)cc2)cc1 [Cpd 185]	58.9	–
CCNC(=O)c1ccc(C(=C2CC3CCC(C2)N3Cc2nccs2)c2cccc(CO)c2)cc1 [Cpd 186]	28.6	–

Structure (SMILES)	Ki (μ-opioid receptor; MOR binding Ki) [nM]	other results
CCNC(=O)c1ccc(C(=C2CC3CCC(C2)N3Cc2nccs2)c2ccc(NS(C)(=O)=O)cc2)cc1 [Cpd 187]	121	–
CCNC(=O)c1ccc(C(=C2CC3CCC(C2)N3Cc2nccs2)c2ccc(C(N)=O)cc2)cc1 [Cpd 188]	–	Ki (μ-opioid receptor; [2]): 491 nM
CCNC(=O)c1ccc(C(=C2CC3CCC(C2)N3Cc2ccsc2)c2cccc(CO)c2)cc1 [Cpd 189]	13.7	–
CCNC(=O)c1ccc(C(=C2CC3CCC(C2)N3Cc2ccsc2)c2ccc(NS(C)(=O)=O)cc2)cc1 [Cpd 190]	0.717	–
CCNC(=O)c1ccc(C(=C2CC3CCC(C2)N3Cc2ccsc2)c2ccc(C(N)=O)cc2)cc1 [Cpd 191]	22.1	–
CCNC(=O)c1ccc(C(=C2CC3CCC(C2)N3Cc2ccco2)c2ccc(CO)cc2)cc1 [Cpd 192]	18.6	–
CCNC(=O)c1ccc(C(=C2CC3CCC(C2)N3Cc2ccccn2)c2ccc(CO)cc2)cc1 [Cpd 193]	25.3	–
CCNC(=O)c1ccc(C(=C2CC3CCC(C2)N3CC=C(C)C)c2ccc(CO)cc2)cc1 [Cpd 194]	–	Ki (μ-opioid receptor; [2]): 3.67 nM
CCNC(=O)c1ccc(C(=C2CC3CCC(C2)N3Cc2nccs2)c2ccc(CO)cc2)cc1 [Cpd 195]	64.2	–
CCN(CC)C(=O)c1ccc(C(=C2CC3CCC(C2)N3C#N)c2ccccc2)cc1 [Cpd 197, 4-[(8-cyano-8-aza-bicyclo[3.2.1]oct-3-ylidene)-phenyl-methyl]-N,N-diethylbenzamide]	10000	–
CCN(CC)C(=O)c1ccc(C(=C2CC3CCC(C2)N3C(=N)N)c2ccccc2)cc1 [Cpd 198, 4-[(8-Carbamimidoyl-8-aza-bicyclo[3.2.1]oct-3-ylidene)-phenyl-methyl]-N,N-diethyl-benzamide]	10000	–
CCN(CC)C(=O)c1ccc(C(=C2CC3CCC(C2)N3C=O)c2ccccc2)cc1 [Cpd 199]	5340	–
CCNC(=O)c1ccc(C(=C2CC3CCC(C2)N3C(=O)Cc2ccccc2)c2cccnc2)cc1 [Cpd 200, N-Ethyl-4-[(8-phenylacetyl-8-aza-bicyclo[3.2.1]oct-3-ylidene)-pyridin-3-yl-methyl]-benzamide]	13.3	–
CCNC(=O)c1ccc(C(=C2CC3CCC(C2)N3Cc2ccco2)c2nnn[nH]2)cc1 [Cpd 204]	–	Ki (μ-opioid receptor; [2]): 25300 nM
CCNC(=O)c1ccc(C(=C2CC3CCC(C2)N3Cc2ccsc2)c2ccc(CO)cc2)cc1 [Cpd 205]	17.2	–
CCNC(=O)c1ccc(C(=C2CC3CCC(C2)N3C=O)c2cccnc2)cc1 [Cpd 207, N-Ethyl-4-[(8-formyl-8-aza-bicyclo[3.2.1]oct-3-ylidene)-pyridin-3-yl-methyl]-benzamide]	–	Ki (μ-opioid receptor; [2]): 10000 nM
CCNC(=O)c1ccc(C(=C2CC3CCC(C2)N3C(=O)c2cccs2)c2cccnc2)cc1 [Cpd 208, N-Ethyl-4-{pyridin-3-yl-[8-(thiophene-2-carbonyl)-8-aza-bicyclo[3.2.1]oct-3-ylidene]-methyl}-benzamide]	61.7	–
CCNC(=O)c1ccc(C(=C2CC3CCC(C2)N3C(=O)c2ccccn2)c2cccnc2)cc1 [Cpd 213]	10000	–
CCNC(=O)c1ccc(C(=C2CC3CCC(C2)N3C(=O)c2ccoc2)c2cccnc2)cc1 [Cpd 214]	580	–
CCNC(=O)c1ccc(C(=C2C[C@H]3CC[C@@H](C2)N3C(=O)Cc2ccccc2)c2cccnc2)cc1 [Cpd 218, N-Ethyl-4-[((1S,5R)-8-phenylacetyl-8-aza-bicyclo[3.2.1]oct-3-ylidene)-pyridin-3-yl-methyl]-benzamide]	3.54	–
CCN(CC)C(=O)c1ccc(C(=C2CC3CCC(C2)N3C)c2ccccc2)cc1.Cl [Example 1, N,N-Diethyl-4-[(8-methyl-8-azabicyclo[3.2.1]oct-3-ylidene)phenylmethyl]benzamide Hydrochloride [1:1]]	–	inhibition response (percent inhibition of abdominal constriction response, equated to % analgesia) [1]: 87%
